The test system of this test is SAUR 9218. The experiment in a line: MIC Test Method, standard agar dilution. It counts as cell-based. To be noted: agar dilution, Mueller Hinton agar, incubated overnight at 35° C.; lowest concentration that inhibits visible growth; read-out: SAUR 9218 MIC. How it is done:
The in vitro MiCs of test compounds were determined by a standard agar dilution method. A stock drug solution of each analog was prepared in the preferred solvent, usually DMSO:H2O (1:3). Serial 2-fold dilutions of each sample are made using 1.0 ml aliquots of sterile distil]ed water. To each 1.0 ml aliquot of drug was added 9 ml of molten Mueller Hinton agar medium. The drug-supplemented agar was mixed, poured into 15×100 mm petri dishes, and allowed to solidify and dry prior to inoculation.
Vials of each of the test organisms are maintained frozen in the vapor phase of a liquid nitrogen freezer. Test cultures are grown overnight at 35° C. on the medium appropriate for the organism. Colonies are harvested with a sterile swab, and cell suspensions are prepared in Trypticase Soy broth (TSB) to equal the turbidity of a 0.5 McFamland standard. A 1:20 dilution of each suspension was made in TSB. The plates containing the drug supplemented agar are inoculated with a 0.001 ml drop of the cell suspension using a Steers replicator, yielding approximately 10^4 to 10^5 cells per spot. The plates are incubated overnight at 35° C.
Following incubation the Minimum Inhibitory Concentration (MIC μg/ml), the lowest concentration of drug that inhibits visible growth of the organism, was read and recorded.
(In general: In agar dilution the substance is mixed into plates at graded concentrations.)

The record followed here is patent US20040110802A1, “Antibacterial benzoic acid derivatives” (priority 2002, published 2004).

In brackets after ≈: the same amount, converted by molar mass. Bounds are passed on as bounds.

In the case of `N#Cc1ccc(NC(=O)c2cc3cccc(NC(=O)c4ccc(-c5ccccc5)cc4)c3[nH]2)c(C(=O)O)c1`, the MIC stood at 0.5 µg/mL (≈ 0.999 µM).

`N#Cc1ccc(NC(=O)c2noc3cc(OS(=O)(=O)Cc4ccccc4)ccc23)c(C(=O)O)c1`: the MIC is 0.25 µg/mL (≈ 0.524 µM).

On to `COc1cccc(CC(=O)Nc2cccc3cc(C(=O)Nc4ccc(C#N)cc4C(=O)O)[nH]c23)c1`, for which the MIC is 0.5 µg/mL (≈ 1.07 µM).

`CCCCn1c(C(=O)Nc2ccc(Cl)cc2C(=O)O)cc2ccccc21`: the MIC was found to be 4 µg/mL (≈ 10.8 µM).

As for `C[C@@H](CBr)COc1ccccc1-c1cc(C(=O)Nc2ccc(C#N)cc2C(=O)O)no1`, the MIC is 0.5 µg/mL (≈ 1.03 µM).

Consider `O=C(Nc1ccc(Br)cc1C(=O)O)c1cnc(CC[C@H](O)CO)cn1`, for which the MIC turned out to be 64 µg/mL (≈ 156 µM).

On to `Cc1sc(C(=O)Nc2ccc(C#N)cc2C(=O)O)cc1S(=O)(=O)N1CCCC1C` (centres unmarked), for which the MIC amounted to 8 µg/mL (≈ 18.5 µM).

For the compound `Cn1c(C(=O)Nc2ccc(C#N)cc2C(=O)O)cc2cccc(NC(=O)Cc3ccncc3)c21.O=C(O)C(F)(F)F`, the MIC came out at 1 µg/mL.

Consider `CCC(C)Oc1ccc2cc(C(=O)Nc3ccc(C#N)cc3C(=O)O)n(C)c2c1` (centres unmarked), for which the minimum inhibitory concentration (MIC) turned out to be 16 µg/mL (≈ 40.9 µM).

For `N#Cc1ccc(NC(=O)c2csc(SCc3ccccc3)n2)c(C(=O)O)c1`, the MIC was 4 µg/mL (≈ 10.1 µM).

As to `N#Cc1ccc(NC(=O)c2cc3ccccc3n2CCCc2ccccc2)c(C(=O)O)c1`, the MIC was determined as 4 µg/mL (≈ 9.45 µM).

For the compound `N#Cc1ccc(NC(=O)c2cc(-c3ccccc3Cl)on2)c(C(=O)O)c1`, the MIC came out at 0.125 µg/mL (≈ 0.34 µM).

With `CC(C)(C)O/N=C1\CCn2c(C(=O)Nc3ccc(C#N)cc3C(=O)O)cc3cccc1c32`, the MIC stood at 1 µg/mL (≈ 2.32 µM).

`COCCOCCCSc1cnc(C(=O)Nc2ccc(Br)cc2C(=O)O)cn1`: the MIC stood at 2 µg/mL (≈ 4.25 µM).

`Cl.N#Cc1ccc(NC(=O)c2ccc(SCc3ccccc3)nc2)c(C(=O)O)c1`: the MIC amounted to 0.25 µg/mL.

Consider `Cc1noc(C)c1S(=O)(=O)Nc1cccc2cc(C(=O)Nc3ccc(C#N)cc3C(=O)O)n(C)c12`, for which the MIC is 0.25 µg/mL (≈ 0.507 µM).

For `N#Cc1ccc(NC(=O)c2noc3cc(Cl)ccc23)c(C(=O)O)c1`, the MIC came to 1 µg/mL (≈ 2.93 µM).

With `CCCN(CCC)S(=O)(=O)c1ccc2onc(C(=O)Nc3ccc(C#N)cc3C(=O)O)c2c1`, the MIC is 0.25 µg/mL (≈ 0.531 µM).

On to `CCCCN(CC)S(=O)(=O)c1cc(C(=O)Nc2ccc(C#N)cc2C(=O)O)sc1C`, for which the MIC is 8 µg/mL (≈ 17.8 µM).

`CC(=O)Nc1cccc(-c2cccc3cc(C(=O)Nc4ccc(C#N)cc4C(=O)O)n(C)c23)c1`: the MIC amounted to 0.5 µg/mL (≈ 1.11 µM).

Take `CCOP(=O)(Cc1ccc(NS(=O)(=O)c2cc(C(=O)Nc3ccc(Br)cc3C(=O)O)sc2C)cc1)OCC`: the MIC turned out to be 64 µg/mL (≈ 99.1 µM).

Take `N#Cc1ccc(NC(=O)c2cc3cccc(NC(=O)COc4ccccc4)c3[nH]2)c(C(=O)O)c1`: the MIC turned out to be 0.5 µg/mL (≈ 1.1 µM).

For `N#Cc1ccc(NC(=O)c2cc3cccc(NC(=O)c4ccno4)c3[nH]2)c(C(=O)O)c1`, the MIC was 2 µg/mL (≈ 4.82 µM).

Consider `CCCCn1c(C(=O)Nc2ccc(Br)cc2C(=O)O)cc2ccccc21`, for which the MIC is 4 µg/mL (≈ 9.63 µM).

With `O=C(O)c1cc(Br)ccc1NC(=O)c1noc2ccc(Br)cc12`, the MIC came to 1 µg/mL (≈ 2.27 µM).

With `Cc1ccccc1-c1ccc2onc(C(=O)Nc3ccc(C#N)cc3C(=O)O)c2c1`, the MIC was determined as 0.125 µg/mL (≈ 0.315 µM).

With `COc1ccccc1-c1cc(C(=O)Nc2ccc(Br)cc2C(=O)O)no1`, the MIC amounted to 0.125 µg/mL (≈ 0.3 µM).

As for `N#Cc1ccc(NC(=O)c2nsc3ccccc23)c(C(=O)O)c1`, the MIC is 1 µg/mL (≈ 3.09 µM).

`N#Cc1ccc(NC(=O)c2ncc(-c3ccccc3)o2)c(C(=O)O)c1`: the MIC worked out at 0.5 µg/mL (≈ 1.5 µM).

For the compound `Cn1c(C(=O)Nc2ccc(C#N)cc2C(=O)O)cc2cccc(NC(=O)c3ccc(N=[N+]=[N-])c(I)c3)c21`, the MIC was more than 128 µg/mL.

Regarding `N#Cc1ccc(NC(=O)c2noc3cc(OCc4ccccc4)ccc23)c(C(=O)O)c1`, the MIC is 0.25 µg/mL (≈ 0.605 µM).

Consider `CC(=O)Nc1ccc2onc(C(=O)Nc3ccc(C#N)cc3C(=O)O)c2c1`, for which the MIC came to 2 µg/mL (≈ 5.49 µM).

`O=C(Nc1ccc(Br)cc1C(=O)O)c1cnc(CC(O)[C@H](O)CO)cn1` (some centres unmarked): the MIC is more than 128 µg/mL.

For the compound `Cn1c(C(=O)Nc2ccc(C#N)cc2C(=O)O)cc2cccc(OCc3cccnc3)c21`, the MIC worked out at 0.125 µg/mL (≈ 0.293 µM).

Take `Cc1c(S(=O)(=O)NCCc2ccc(N)cc2)csc1C(=O)Nc1ccc(Br)cc1C(=O)O`: the MIC amounted to 8 µg/mL (≈ 14.9 µM).

Broadly, the MIC is the least concentration at which growth counts as inhibited.
